In US8722589B2, “Use of 1-alkyl-5-oxopyrrolidine-3-carboxylic esters as gas hydrate inhibitors with improved biodegradability” (Clariant Finance (BVI) Limited, priority 2007, dated 2014):

Test: Agglomerate inhibition in stirred autoclave (water/white spirit/natural gas)
Details: 5000 ppm based on water phase; water and white spirit 1:2; 50 bar; 500 rpm; 4° C.
Procedure: (§1) To investigate the inhibiting action of the 1-alkyl-5-oxopyrrolidine-3-carboxylic esters, a stirred steel autoclave with temperature control, pressure and torque sensor of capacity 450 ml was used. For studies of kinetic inhibition, the autoclave was filled with distilled water and gas in a volume ratio of 20:80; for studies of agglomerate inhibition, condensate was additionally added. Subsequently, 50 bar of natural gas were injected.
(§2) The measure used for the inhibiting action of the product is the time from the attainment of the minimum temperature of 4° C. until the first gas absorption (Tind) or the time until the torque rises (Tagg). Long induction times or agglomeration times indicate an effect as a kinetic inhibitor. The torque measured in the autoclave serves, in contrast, as a parameter for the agglomeration of the hydrate crystals.
In order to test the action as agglomerate inhibitors, the test autoclave used above was initially charged with water and white spirit (20% of the volume in a ratio of 1:2) and, based on the water phase, 5000 ppm of the particular additive were added.
At an autoclave pressure of 50 bar and a stirrer speed of 500 rpm, the temperature was cooled from initially 20° C. within 3 hours to 4° C., then the autoclave was stirred at 4° C. for 18 hours and heated up again. In the course of this, the agglomeration time up to occurrence of gas hydrate agglomerates and the torque which occurred on the stirrer at that time were measured, the latter being a measure of the agglomeration of the gas hydrates.
The comparative substance employed was a commercially available antiagglomerant (quaternary ammonium salt).

| Molecule | Mmax (torque on the stirrer) | Tagg (agglomeration time up to occurrence of gas hydrate agglomerates) |
| --- | --- | --- |
| CCCCCCCC/C=C\CCCCCCCCN1CC(C(=O)OCC(C)C)CC1=O (stereo not shown) [Example 19, isobutyl 1-oleyl-5-oxopyrrolidine-3-carboxylate] | 1.2 Ncm | 6.0 h |
| CCCCCCCC/C=C\CCCCCCCCN1CC(C(=O)OCC(CC)CCCC)CC1=O (stereo not shown) [Example 20, 2-ethylhexyl 1-oleyl-5-oxopyrrolidine-3-carboxylate] | 2.1 Ncm | 3.5 h |
| CCCCCCCC/C=C\CCCCCCCCN1CC(C(=O)OCC(COC(=O)C2CC(=O)N(CCCCCCCC/C=C\CCCCCCCC)C2)OC(=O)C2CC(=O)N(CCCCCCCC/C=C\CCCCCCCC)C2)CC1=O (stereo not shown) [Example 21, glyceryl tri(1-oleyl-5-oxopyrrolidine-3-carboxylate)] | 2.0 Ncm | 2.9 h |
| CCCCCCCC/C=C\CCCCCCCCN1CC(C(=O)OCC(CO)(CO)COC(=O)C2CC(=O)N(CCCCCCCC/C=C\CCCCCCCC)C2)CC1=O (stereo not shown) [Example 22, pentaerythrityl di(1-oleyl-5-oxopyrrolidine-3-carboxylate)] | 1.9 Ncm | 3.8 h |
| CCCCCCCC/C=C\CCCCCCCCN1CC(C(=O)OCC(CO)(COCC(CO)(COC(=O)C2CC(=O)N(CCCCCCCC/C=C\CCCCCCCC)C2)COC(=O)C2CC(=O)N(CCCCCCCC/C=C\CCCCCCCC)C2)COC(=O)C2CC(=O)N(CCCCCCCC/C=C\CCCCCCCC)C2)CC1=O (stereo not shown) [Example 23, dipentaerythrityl tetra(1-oleyl-5-oxopyrrolidine-3-carboxylate)] | 2.0 Ncm | 3.8 h |
| (oleyl alcohol+5 EO) 1-isobutyl-5-oxopyrrolidine-3-carboxylate [Example 16] | 1.0 Ncm | 5.9 h |
| (oleyl alcohol+5 EO) 1-methyl-5-oxopyrrolidine-3-carboxylate [Example 7] | 0.9 Ncm | 6.5 h |

Test: Kinetic gas hydrate inhibition in stirred steel autoclave (water/natural gas)
Details: 5000 ppm based on water phase; 50 bar natural gas; cooled 20° C. to 4° C.; water:gas 20:80
Procedure: as §1
At first, a pressure decrease corresponding to the thermal compression of the gas is observed. When the formation of gas hydrate nuclei occurs during the cooling time, the pressure measured falls, and a rise in the torque measured and a slight increase in the temperature are observed. […] When the mixture is heated, the gas hydrates decompose, so that the starting state of the experimental series is attained.
as §2
Composition of the natural gas used:
The dosage in all tests was 5000 ppm based on the water phase.

| Molecule | Tagg (time until the torque rises) | Tind (time from attainment of 4° C. until first gas absorption) |
| --- | --- | --- |
| CC(C)COC(=O)C1CC(=O)N(C)C1 (stereo not shown) [Example 1, isobutyl 1-methyl-5-oxopyrrolidine-3-carboxylate] | 11.0 h | 10.9 h |
| CCCCC(CC)COC(=O)C1CC(=O)N(C)C1 (stereo not shown) [Example 2, 2-ethylhexyl 1-methyl-5-oxopyrrolidine-3-carboxylate] | 11.7 h | 11.5 h |
| CN1CC(C(=O)OCC(COC(=O)C2CC(=O)N(C)C2)OC(=O)C2CC(=O)N(C)C2)CC1=O (stereo not shown) [Example 3, glyceryl tri(1-methyl-5-oxopyrrolidine-3-carboxylate)] | 12.5 h | 12.0 h |
| CN1CC(C(=O)OCC(CO)(CO)COC(=O)C2CC(=O)N(C)C2)CC1=O (stereo not shown) [Example 4, pentaerythritol di(1-methyl-5-oxopyrrolidine-3-carboxylate)] | 11.5 h | 11.4 h |
| CN1CC(C(=O)OCC(CO)(COCC(CO)(COC(=O)C2CC(=O)N(C)C2)COC(=O)C2CC(=O)N(C)C2)COC(=O)C2CC(=O)N(C)C2)CC1=O (stereo not shown) [Example 5, dipentaerythrityl tetra(1-methyl-5-oxopyrrolidine-3-carboxylate)] | 10.1 h | 10.0 h |
| CCCCOCCOCCOCCOC(=O)C1CC(=O)N(C)C1 (stereo not shown) [Example 6, butyltriglycol 1-methyl-5-oxopyrrolidine-3-carboxylate] | 13.4 h | 13.1 h |
| CC(C)COC(=O)C1CC(=O)N(CC(C)C)C1 (stereo not shown) [Example 10, isobutyl 1-isobutyl-5-oxopyrrolidine-3-carboxylate] | 17.0 h | 16.1 h |
| CCCCC(CC)COC(=O)C1CC(=O)N(CC(C)C)C1 (stereo not shown) [Example 11, 2-ethylhexyl 1-isobutyl-5-oxopyrrolidine-3-carboxylate] | 18.3 h | 17.5 h |
| CC(C)CN1CC(C(=O)OCC(COC(=O)C2CC(=O)N(CC(C)C)C2)OC(=O)C2CC(=O)N(CC(C)C)C2)CC1=O (stereo not shown) [Example 12, glyceryl tri(1-isobutyl-5-oxopyrrolidine-3-carboxylate)] | 18.8 h | 18.1 h |
| CC(C)CN1CC(C(=O)OCC(CO)(CO)COC(=O)C2CC(=O)N(CC(C)C)C2)CC1=O (stereo not shown) [Example 13, pentaerythrityl di(1-isobutyl-5-oxopyrrolidine-3-carboxylate)] | 17.4 h | 16.9 h |
| CCCCOCCOCCOCCOC(=O)C1CC(=O)N(CC(C)C)C1 (stereo not shown) [Example 15, butyltriglycol 1-isobutyl-5-oxopyrrolidine-3-carboxylate] | 17.2 h | 16.1 h |
| dipentaerythrityl tetra(1-isobutyl-5-oxopyrrolidine-3-carboxylate) [Example 14] | 15.9 h | 15.3 h |

Test: Biodegradability to OECD 306
Details: not given

| Molecule | Biodegradability 28 days (OECD 306) |
| --- | --- |
| CN1CC(C(=O)OCC(COC(=O)C2CC(=O)N(C)C2)OC(=O)C2CC(=O)N(C)C2)CC1=O (stereo not shown) [Example 3, glyceryl tri(1-methyl-5-oxopyrrolidine-3-carboxylate)] | 90 |
| CC(C)CN1CC(C(=O)OCC(COC(=O)C2CC(=O)N(CC(C)C)C2)OC(=O)C2CC(=O)N(CC(C)C)C2)CC1=O (stereo not shown) [Example 12, glyceryl tri(1-isobutyl-5-oxopyrrolidine-3-carboxylate)] | 85 |
